Measurements: patent US20240024298A1, “COMPOSITIONS AND METHODS FOR THE TREATMENT OF HPV-ASSOCIATED DISEASE STATES” (Children's Hospital Medical Center, priority 2022, published 2024)

Assays:
Assay type in all cases: cell-based
[1] = tested on: HPV+ keratinocytes grown into organotypic epithelial rafts; test: EdU proliferation in HPV+ organotypic epithelial rafts
Experimental: (§1) On raft day 14, the tissues were harvested and lysed with RIPA buffer to extract protein for western blotting. […] Beta-actin was used to show equal protein loading. (B) HPV− and HPV+ rafts were treated with increasing doses of OSMI-1, an inhibitor of OGT activity, from day 8 to day 14 of the raft culturing protocol. EdU, a thymidine analog that incorporates into DNA during DNA synthesis, was added to the media on day 13. 24 h later, on raft day 14, tissues were fixed in PFA for paraffin-embedding, sectioning, and immunofluorescence (IF) staining. Representative IF images are shown with nuclei stained with DAPI (blue), and proliferating cells visualized with click chemistry to detect EdU incorporation (pink). Quantification of the number of EdU+ cells per field is shown to the right. […] 2-way ANOVA was used to determine significance. Representative images shown. n=3.
(§2) Representative IF images are shown with nuclei stained with DAPI (blue), proliferating cells visualized with click chemistry to detect EdU incorporation (white), basal cell layer keratinocytes stained with collagen 17A (COL17A; green) and differentiated layer keratinocytes stained with keratin 10 (K10; red). Quantifications of the total (top graph) and suprabasal (lower graph) number of EdU+ cells per field are shown to the right. […] 2-way ANOVA was used to determine significance. Representative images shown. n=3.

[2] = tested on: HPV− keratinocytes grown into organotypic epithelial rafts; test: EdU proliferation in HPV− organotypic epithelial rafts
Experimental: as §1, §2

[3] = tested on: HPV+ keratinocytes 3D spheroids; test: 3D spheroid area, brightfield microscopy; settings: HPV+ spheres, culture day 4, n=4
Experimental: FIG. 3 (A) HPV+ and HPV− keratinocytes were seeded in round-bottom plates to form 3D spheroids (Day 0). 48 h after plating the cells (Day 2), increasing doses of Eliglustat were added to the media. 48 h after adding the drug treatment (Day 4), spheroids were imaged with brightfield microscopy and images quantified for sphere area. n=4. (B) Quantification of sphere area on culture day 4 after treatment with increasing doses of Eliglustat for 48 h.

[4] = increasing doses of Eliglustat, raft day 8 to day 14, EdU added day 13, n=3
[5] = 6.25 uM OSMI-1, treated raft day 8 to day 14, EdU added day 13, n=3
[6] = 25 uM OSMI-1 (highest dose tested), raft day 8 to day 14

Row | SMILES | Proliferation (total and suprabasal number of EdU+ cells per field) [1, 4] | Proliferation (total and suprabasal number of EdU+ cells per field) [2, 4] | Sphere area ([3]; 25 uM Eliglustat (highest dose tested), 48 h) | Sphere area ([3]; increasing doses of Eliglustat for 48 h) | Proliferation (number of EdU+ cells per field) [1, 5] | Proliferation (number of EdU+ cells per field) [1, 6] | Proliferation (number of EdU+ cells per field) [2, 5] | Proliferation (number of EdU+ cells per field) [2, 6]
1 | CCCCCCCC(=O)N[C@H](CN1CCCC1)[C@H](O)c1ccc2c(c1)OCCO2 [Eliglustat] | significantly decreased with increasing dose | no significant effect on proliferation | significantly reduce HPV+ sphere area to that of HPV− spheres | decreased concomitantly with increasing Eliglustat dose |  |  |  | 
2 | COc1ccccc1[C@@H](NS(=O)(=O)c1ccc2[nH]c(=O)ccc2c1)C(=O)N(Cc1ccco1)Cc1cccs1 [OSMI-1] |  |  |  |  | significantly decreased | decreased proliferation | no effect on proliferation | decreased proliferation
